Experimental data published in patent publication US11993610B2, “BCL-2 inhibitors” (Newave Pharmaceutical Inc., priority 2017, dated 2024).
pIC50: −log10 of the molar value. Like-named read-outs stand apart in the source and are kept apart here. Values belong to the compound of their own block, whether it stands above or below them.

Tests used:
RS4; 11 = assay: In vitro anti-proliferation assay (ATPlite) in BCL-2-dependent ALL cell line RS4; 11; type: cell-based
Method: Cell antiproliferation was assayed by PerkinElmer ATPlite™ Luminescence Assay System. Briefly, the various test cancer cell lines were plated at a density of about 1×10^4 cells per well in Costar 96-well plates, and were incubated with different concentrations of compounds for about 72 hours in medium supplemented with 5% FBS or 10% normal human serum (NHS). One lyophilized substrate solution vial was then reconstituted by adding 5 mL of substrate buffer solution, and was agitated gently until the solution is homogeneous. About 50 μL of mammalian cell lysis solution was added to 100 μL of cell suspension per well of a microplate, and the plate was shaken for about five minutes in an orbital shaker at ˜700 rpm. This procedure was used to lyse the cells and to stabilize the ATP. Next, 50 μL substrate solution was added to the wells and microplate was shaken for five minutes in an orbital shaker at ˜700 rpm. Finally, the luminescence was measured by a PerkinElmer TopCount® Microplate Scintillation Counter. Such assays, carried out with a range of doses of test compounds, allowed the determination of the cellular anti-antiproliferative IC50 of the compounds of the present invention.

Mice PK study = type: in vivo; settings: po, 10 mg/kg, CD-1 mouse; for AUC / bioavailability / half-life: plasma; for bioavailability: read-out: Bioavailabilty; for half-life: read-out: t½ (converted)
Method: The pharmacokinetics of compounds were evaluated in CD-1 mouse via Intravenous and Oral Administration. The IV dose was administered as a slow bolus in the Jugular vein, and oral doses were administered by gavage. The formulation for IV dosing is 5% DMSO in 20% HPBCD in water, and the PO formulation is 2.5% DMSO, 10% EtOH, 20% Cremphor EL, 67.5% D5W. The PK time point for the IV arm was 5, 15, 30 min, 1, 2, 4, 6, 8, 12, 24 hours post dose, and for PO arm was 15, 30 min, 1, 2, 4, 6, 8, 12, 24 hours post dose. Approximately 0.03 mL blood was collected at each time point. Blood of each sample was transferred into plastic micro centrifuge tubes containing EDTA-K2 and plasma was collected within 15 min by centrifugation at 4000 g for 5 minutes in a 4′C centrifuge. Plasma samples were stored in polypropylene tubes. The samples were stored in a freezer at −75±15° C. prior to analysis. Concentrations of compounds in the plasma samples were analyzed using a LC-MS/MS method. WinNonlin (Phoenix™, version 6.1) or other similar software was used for pharmacokinetic calculations. The following pharmacokinetic parameters were calculated, whenever possible from the plasma concentration versus time data: IV administration: C0, CL, Vd, T1/2, AUCinf, AUClast, MRT, Number of Points for Regression; PO administration: Cmax, Tmax, T1/2, AUCinf, AUClast, F %, Number of Points for Regression. The pharmacokinetic data was described using descriptive statistics such as mean, standard deviation. Additional pharmacokinetic or statistical analysis was performed at the discretion of the contributing scientist, and was documented in the data summary.

[1] = system: BCL-2-dependent acute lymphoblastic leukemia RS4; 11 xenograft model; assay: In vivo RS4; 11 xenograft study; design: species or system CB.17 SCID mice; settings: for BW Nadir / Tumor volume: po
Excerpt: The CB.17 SCID mice were obtained at age 6-8 weeks from vendors and acclimated for a minimum 7-day period. The cancer cells were then implanted into the […] mice. Depending on the specific tumor type, tumors were typically detectable about two weeks following implantation. When tumor sizes reached ˜100-200 mm^3, the animals with appreciable tumor size and shape were randomly assigned into groups of 8 mice each, including one vehicle control group and treatment groups. Dosing varies depending on the purpose and length of each study, which typically proceeded for about 3-4 weeks. Tumor sizes and body weight were typically measured three times per week. In addition to the determination of tumor size changes, the last tumor measurement was used to generate the tumor size change ratio (T/C value), a standard metric developed by the National Cancer Institute for xenograft tumor evaluation. In most cases, % T/C values were calculated using the following formula: % T/C=100×ΔT/ΔC if ΔT>0. When tumor regression occurred (ΔT<0), however, the following formula was used: % T/T0=100×ΔT/T0.

H345 xenograft model = settings: 100 mg/kg/day; cited from earlier work
[2] = system: xenograft models of small-cell lung cancer and acute lymphoblastic leukemia; settings: oral administration, alone; cited from earlier work
circulating platelets = settings: clinical trial; cited from earlier work
[3] = cited from earlier work
[4] = Homo sapiens, RS4-11, 72 h, read-out: IC50, RS4, 11 5% FBS, about 72 hours, another study
[5] = Homo sapiens, RS4-11, 72 h, read-out: IC50, RS4, 11 5% FBS, about 72 hours, first study

pIC50 (RS4; 11; [4]): 8.49
AUC (Mice PK study): 12100 ng·h/mL
bioavailability (Mice PK study): 74%
Compound: C[C@H]1CN(c2cc(N3CCN(CC4=C(c5ccc(Cl)cc5)CC(C)(C)CC4)CC3)ccc2C(=O)NS(=O)(=O)c2ccc(NCC3(F)CCOCC3)c([N+](=O)[O-])c2)c2cc3cc[nH]c3nc2O1 [Example 6 (S), (S)-4-(4-((4′-chloro-5,5-dimethyl-3,4,5,6-tetrahydro-[1,1′-biphenyl]-2-yl)methyl)piperazin-1-yl)-N-((4-(((4-fluorotetrahydro-2H-pyran-4-yl)methyl)amino)-3-nitrophenyl)sulfonyl)-2-(3-methyl-2,3-dihydropyrrolo[3′,2′:5,6]pyrido[2,3-b][1,4]oxazin-1(6H)-yl)benzamide]

AUC (Mice PK study): 35000 ng·h/mL
bioavailability (Mice PK study): 78%
half-life (Mice PK study): 4.1 h
Compound: C[C@@H]1CN(c2cc(N3CCN(CC4=C(c5ccc(Cl)cc5)CC(C)(C)CC4)CC3)ccc2C(=O)NS(=O)(=O)c2ccc(NCC3CCOCC3)c([N+](=O)[O-])c2)c2cc3cc[nH]c3nc2O1 [Example 10, (R)-4-(4-((4′-chloro-5,5-dimethyl-3,4,5,6-tetrahydro-[1,1′-biphenyl]-2-yl)methyl)piperazin-1-yl)-2-(3-methyl-2,3-dihydropyrrolo[3′,2′:5,6]pyrido[2,3-b][1,4]oxazin-1(6H)-yl)-N-((3-nitro-4-(((tetrahydro-2H-pyran-4-yl)methyl)amino)phenyl)sulfonyl)benzamide]

pIC50 (RS4; 11; [4]): 8.25
AUC (Mice PK study): 11000 ng·h/mL
bioavailability (Mice PK study): 90%
half-life (Mice PK study): 3.2 h
Compound: CC1(C)CCC(CN2CCN(c3ccc(C(=O)NS(=O)(=O)c4ccc(NCC5(F)CCOCC5)c([N+](=O)[O-])c4)c(N4CC(C)(C)Oc5nc6[nH]ccc6cc54)c3)CC2)=C(c2ccc(Cl)cc2)C1 [Example 7, 4-(4-((4′-chloro-5,5-dimethyl-3,4,5,6-tetrahydro-[1,1′-biphenyl]-2-yl)methyl)piperazin-1-yl)-2-(3,3-dimethyl-2,3-dihydropyrrolo[3′,2′:5,6]pyrido[2,3-b][1,4]oxazin-1(6H)-yl)-N-((4-(((4-fluorotetrahydro-2H-pyran-4-yl)methyl)amino)-3-nitrophenyl)sulfonyl)benzamide]

AUC (Mice PK study): 19900 ng·h/mL
half-life (Mice PK study): 4.1 h
Compound: C[C@H]1CN(c2cc(N3CCN(CC4=C(c5ccc(Cl)cc5)CC(C)(C)CC4)CC3)ccc2C(=O)NS(=O)(=O)c2ccc(NCC3CCOCC3)c([N+](=O)[O-])c2)c2cc3cc[nH]c3nc2O1 [Example 9, (S)-4-(4-((4′-chloro-5,5-dimethyl-3,4,5,6-tetrahydro-[1,1′-biphenyl]-2-yl)methyl)piperazin-1-yl)-2-(3-methyl-2,3-dihydropyrrolo[3′,2′:5,6]pyrido[2,3-b][1,4]oxazin-1(6H)-yl)-N-((3-nitro-4-(((tetrahydro-2H-pyran-4-yl)methyl)amino)phenyl)sulfonyl)benzamide]

Second part, the compound before the results:

Compound: CC1(C)CCC(CN2CCN(c3ccc(C(=O)NS(=O)(=O)c4ccc(NCC5CCOCC5)c([N+](=O)[O-])c4)c(Oc4cnc5[nH]ccc5c4)c3)CC2)=C(c2ccc(Cl)cc2)C1 [ABT-199, reference compound]
pIC50 (RS4; 11; [5]): 8.26
BW Nadir ([1]; 50 mg/kg, qd × 7): −3.60%
Tumor volume ([1]; 50 mg/kg, qd × 7): 0 mm^3
Tumor volume ([1]; 50 mg/kg, qd × 21): 17.4 mm^3

Compound: CC1(C)CCC(CN2CCN(c3ccc(C(=O)NS(=O)(=O)c4ccc(NCC5CCOCC5)c([N+](=O)[O-])c4)c(N4CCOc5nc6[nH]ccc6cc54)c3)CC2)=C(c2ccc(Cl)cc2)C1 [Example 2 (NW-4-8), 4-(4-[[2-(4-chlorophenyl)-4,4-dimethylcyclohex-1-en-1-yl]methyl]piperazin-1-yl)-N-([3-nitro-4-[(oxan-4-ylmethyl)amino]benzene]sulfonyl)-2-[13-oxa-2,4,10-triazatricyclo[7.4.0.0^[3,7]]trideca-1,3(7),5,8-tetraen-10-yl]benzamide]
pIC50 (RS4; 11; read-out: IC50, RS4, 11 5% FBS, about 72 hours, first study): 8.32
AUC(h * ng/mL) (Mice PK study): 10,365 h * ng/mL
Bioavailabilty (Mice PK study): 68%
t½ (Mice PK study): 2.7 h

Compound: C[C@@H]1CN(c2cc(N3CCN(CC4=C(c5ccc(Cl)cc5)CC(C)(C)CC4)CC3)ccc2C(=O)NS(=O)(=O)c2ccc(NCC3(F)CCOCC3)c([N+](=O)[O-])c2)c2cc3cc[nH]c3nc2O1 [Example 6 (R), (R)-4-(4-((4′-chloro-5,5-dimethyl-3,4,5,6-tetrahydro-[1,1′-biphenyl]-2-yl)methyl)piperazin-1-yl)-N-((4-(((4-fluorotetrahydro-2H-pyran-4-yl)methyl)amino)-3-nitrophenyl)sulfonyl)-2-(3-methyl-2,3-dihydropyrrolo[3′,2′:5,6]pyrido[2,3-b][1,4]oxazin-1(6H)-yl)benzamide]
pIC50 (RS4; 11; [4]): 8.89
AUC (Mice PK study): 16100 ng·h/mL
half-life (Mice PK study): 3.2 h

Compound: CC1(C)CCC(c2ccc(Cl)cc2)=C(CN2CCN(c3ccc(C(=O)NS(=O)(=O)c4ccc(N[C@H](CCN5CCOCC5)CSc5ccccc5)c(S(=O)(=O)C(F)(F)F)c4)cc3)CC2)C1 [ABT-263]
TGI (H345 xenograft model): 80%
treated tumors indicating at least a 50% reduction in tumor volume (H345 xenograft model): 20%
tumor regressions [2]: complete tumor regressions
number of circulating platelets (circulating platelets): rapid, concentration-dependent decrease in the number of circulating platelets

Compound: CN(C)CC[C@H](CSc1ccccc1)Nc1ccc(S(=O)(=O)NC(=O)c2ccc(N3CCN(Cc4ccccc4-c4ccc(Cl)cc4)CC3)cc2)cc1[N+](=O)[O-] [ABT-737]
aqueous solubility [3]: low

Compound: CC1(C)CCC(CN2CCN(c3ccc(C(=O)NS(=O)(=O)c4ccc(NCC5(F)CCOCC5)c([N+](=O)[O-])c4)c(N4CCOc5nc6[nH]ccc6cc54)c3)CC2)=C(c2ccc(Cl)cc2)C1 [Example 3, 4-(4-((4′-chloro-5,5-dimethyl-3,4,5,6-tetrahydro-[1,1′-biphenyl]-2-yl)methyl)piperazin-1-yl)-2-(2,3-dihydropyrrolo[3′,2′:5,6]pyrido[2,3-b][1,4]oxazin-1(6H)-yl)-N-((4-(((4-fluorotetrahydro-2H-pyran-4-yl)methyl)amino)-3-nitrophenyl)sulfonyl)benzamide]
pIC50 (RS4; 11; [4]): 8.85
pIC50 (RS4; 11; [5]): 8.59
BW Nadir ([1]; 25 mg/kg, qd × 7): −3.60%
Tumor volume ([1]; 25 mg/kg, qd × 7): 368 mm^3
BW Nadir ([1]; 50 mg/kg, qd × 7): −2.90%
Tumor volume ([1]; 50 mg/kg, qd × 7): 26 mm^3
tumor regression ([1]; 100 mg/kg, day 18): complete regression of the tumor
BW Nadir ([1]; 100 mg/kg, qd × 7): −2.10%
Tumor volume ([1]; 100 mg/kg, qd × 7): 0 mm^3
effect on tumor growth ([1]; 7 doses (qd × 7), 25-100 mg/kg po): dose-dependent reduction of tumor growth
